Values of other authors in patent US11169101B2, “Oligosaccharide compositions and methods of use thereof” (Kaleido Biosciences, Inc., priority 2018, dated 2021).

Settings: administered in combination with lactulose

## CO[C@H]1/C=C/O[C@@]2(C)Oc3c(C)c(O)c4c(O)c(c5c(nc6cc(C)ccn65)c4c3C2=O)NC(=O)/C(C)=C\C=C\[C@H](C)[C@H](O)[C@@H](C)[C@@H](O)[C@@H](C)[C@H](OC(C)=O)[C@@H]1C [rifaximin]
  reduction of episodes of OHE: approximately 50%
